Source: patent US8133913B2, “Substituted indeno [1,2-b]indole derivatives as novel inhibitors of protein kinase CK2 and their use as tumor therapeutic agents, cytostatics and diagnostic aids” (Heinrich-Heine Universitat Dusseldof, priority 2006, dated 2012)
Like-named read-outs stand apart in the source and are kept apart here.

Experiments:
KYSE-70 = assay: Proliferation of tumor cell lines (Bracht et al.); assay type: cell-based; settings: Homo sapiens; for activity at 20 µM: KYSE-70, tested at 20 μM, read-out: T/C (%) Mean
EGF-R = target: T1, EGF-R (Homo sapiens, UniProt P00533); assay: Radiometric protein kinase assay (33PanQinase Activity Assay); assay type: biochemical; settings: 1 μM ATP
T1 construct: made in house; host or cells: Sf9 insect cells, baculovirus
T1 sequence (P00533 25-1210): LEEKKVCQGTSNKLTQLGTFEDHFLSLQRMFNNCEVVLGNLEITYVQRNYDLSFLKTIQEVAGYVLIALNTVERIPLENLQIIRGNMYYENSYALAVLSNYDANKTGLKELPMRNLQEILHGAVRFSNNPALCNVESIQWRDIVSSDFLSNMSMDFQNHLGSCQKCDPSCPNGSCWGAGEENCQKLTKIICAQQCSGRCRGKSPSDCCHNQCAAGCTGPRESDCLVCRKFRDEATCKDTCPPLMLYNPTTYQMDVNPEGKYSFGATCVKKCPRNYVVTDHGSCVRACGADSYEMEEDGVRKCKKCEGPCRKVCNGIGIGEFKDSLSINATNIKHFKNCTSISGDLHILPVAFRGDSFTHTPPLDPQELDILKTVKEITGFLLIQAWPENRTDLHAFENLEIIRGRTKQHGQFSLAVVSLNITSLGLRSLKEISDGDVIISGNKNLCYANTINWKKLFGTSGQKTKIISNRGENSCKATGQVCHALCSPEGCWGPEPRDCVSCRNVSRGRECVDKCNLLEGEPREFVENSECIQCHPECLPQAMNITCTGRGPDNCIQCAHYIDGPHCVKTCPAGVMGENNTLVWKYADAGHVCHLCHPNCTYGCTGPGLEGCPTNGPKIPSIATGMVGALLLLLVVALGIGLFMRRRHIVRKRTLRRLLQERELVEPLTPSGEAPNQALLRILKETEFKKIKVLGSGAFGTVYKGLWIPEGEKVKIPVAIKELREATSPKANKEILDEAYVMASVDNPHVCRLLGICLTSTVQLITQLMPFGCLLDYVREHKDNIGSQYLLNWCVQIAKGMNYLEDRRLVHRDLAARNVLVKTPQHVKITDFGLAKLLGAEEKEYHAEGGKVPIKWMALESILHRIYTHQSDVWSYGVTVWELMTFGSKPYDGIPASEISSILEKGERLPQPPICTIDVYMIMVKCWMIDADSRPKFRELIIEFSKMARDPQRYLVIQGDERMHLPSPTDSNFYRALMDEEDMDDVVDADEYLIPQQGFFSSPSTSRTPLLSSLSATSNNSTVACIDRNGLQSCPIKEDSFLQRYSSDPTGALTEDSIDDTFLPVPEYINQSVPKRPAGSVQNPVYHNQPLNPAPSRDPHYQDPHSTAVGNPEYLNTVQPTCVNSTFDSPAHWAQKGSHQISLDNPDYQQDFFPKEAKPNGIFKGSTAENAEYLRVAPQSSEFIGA

AKT1 = target: T2, AKT1 (Homo sapiens, UniProt P31749); assay: as above; assay type: biochemical
T2 construct: made in house; host or cells: Sf9 insect cells, baculovirus
T2 sequence (P31749 whole entry): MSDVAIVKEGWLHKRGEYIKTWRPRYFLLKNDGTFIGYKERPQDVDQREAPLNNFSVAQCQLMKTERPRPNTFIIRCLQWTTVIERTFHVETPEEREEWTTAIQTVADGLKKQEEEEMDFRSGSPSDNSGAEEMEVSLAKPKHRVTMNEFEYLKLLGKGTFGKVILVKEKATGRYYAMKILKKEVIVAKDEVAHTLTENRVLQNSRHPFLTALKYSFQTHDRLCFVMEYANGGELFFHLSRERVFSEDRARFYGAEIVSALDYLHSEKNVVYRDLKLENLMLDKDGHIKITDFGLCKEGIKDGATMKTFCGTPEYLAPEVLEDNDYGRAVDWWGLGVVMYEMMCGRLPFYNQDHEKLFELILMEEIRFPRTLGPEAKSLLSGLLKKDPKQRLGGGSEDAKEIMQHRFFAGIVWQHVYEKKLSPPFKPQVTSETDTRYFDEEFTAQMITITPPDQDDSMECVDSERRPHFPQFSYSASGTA

COT = target: T3, COT (Homo sapiens, UniProt P41279); assay: as above; assay type: biochemical
T3 construct: made in house; host or cells: Sf9 insect cells (baculovirus)
T3 sequence (P41279 whole entry): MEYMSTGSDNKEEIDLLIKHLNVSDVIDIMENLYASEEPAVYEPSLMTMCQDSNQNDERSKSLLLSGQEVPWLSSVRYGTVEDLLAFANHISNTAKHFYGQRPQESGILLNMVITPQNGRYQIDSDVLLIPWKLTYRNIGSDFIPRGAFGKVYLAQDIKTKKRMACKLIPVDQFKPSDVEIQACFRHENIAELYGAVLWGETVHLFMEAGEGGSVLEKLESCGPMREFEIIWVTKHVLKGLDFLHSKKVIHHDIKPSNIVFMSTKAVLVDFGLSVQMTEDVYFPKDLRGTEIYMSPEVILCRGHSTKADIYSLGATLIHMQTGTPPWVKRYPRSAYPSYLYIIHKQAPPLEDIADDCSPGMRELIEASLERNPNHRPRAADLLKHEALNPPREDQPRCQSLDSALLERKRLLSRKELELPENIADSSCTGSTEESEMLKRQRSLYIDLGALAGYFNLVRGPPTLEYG

EPHB4 = target: T4, EPHB4 (Homo sapiens, UniProt P54760); assay: as above; assay type: biochemical
T4 construct: made in house; host or cells: Sf9 insect cells, baculovirus
T4 sequence (P54760 16-987): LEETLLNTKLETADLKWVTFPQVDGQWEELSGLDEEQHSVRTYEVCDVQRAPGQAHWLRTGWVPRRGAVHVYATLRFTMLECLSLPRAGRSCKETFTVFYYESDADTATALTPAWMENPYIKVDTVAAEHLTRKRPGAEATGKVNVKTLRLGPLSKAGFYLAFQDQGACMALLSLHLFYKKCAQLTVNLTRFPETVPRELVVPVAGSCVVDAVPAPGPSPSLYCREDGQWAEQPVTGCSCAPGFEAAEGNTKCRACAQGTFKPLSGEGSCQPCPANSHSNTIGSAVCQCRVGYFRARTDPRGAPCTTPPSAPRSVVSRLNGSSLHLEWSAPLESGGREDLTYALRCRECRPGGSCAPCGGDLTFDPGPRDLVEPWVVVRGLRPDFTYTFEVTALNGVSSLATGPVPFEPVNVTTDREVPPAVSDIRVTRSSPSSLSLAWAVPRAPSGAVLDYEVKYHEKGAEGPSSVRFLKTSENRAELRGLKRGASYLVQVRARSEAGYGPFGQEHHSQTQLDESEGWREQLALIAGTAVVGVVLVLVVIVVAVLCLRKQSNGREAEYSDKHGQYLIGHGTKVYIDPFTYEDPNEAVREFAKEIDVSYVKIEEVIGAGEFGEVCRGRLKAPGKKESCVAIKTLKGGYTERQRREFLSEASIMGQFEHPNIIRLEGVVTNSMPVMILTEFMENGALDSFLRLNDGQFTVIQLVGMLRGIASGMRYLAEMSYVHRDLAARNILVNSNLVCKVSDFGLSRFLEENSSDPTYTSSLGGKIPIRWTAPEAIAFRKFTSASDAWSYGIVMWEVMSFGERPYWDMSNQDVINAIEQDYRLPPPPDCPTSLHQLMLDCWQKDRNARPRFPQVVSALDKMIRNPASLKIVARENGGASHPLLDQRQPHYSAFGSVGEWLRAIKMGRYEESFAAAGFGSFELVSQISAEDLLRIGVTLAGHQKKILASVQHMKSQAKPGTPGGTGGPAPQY

PDGFR-beta = target: T5, PDGFR-beta (Homo sapiens, UniProt P09619); assay: as above; assay type: biochemical; settings: 1 μM ATP
T5 construct: made in house; host or cells: Sf9 insect cells, baculovirus
T5 sequence (P09619 33-1106): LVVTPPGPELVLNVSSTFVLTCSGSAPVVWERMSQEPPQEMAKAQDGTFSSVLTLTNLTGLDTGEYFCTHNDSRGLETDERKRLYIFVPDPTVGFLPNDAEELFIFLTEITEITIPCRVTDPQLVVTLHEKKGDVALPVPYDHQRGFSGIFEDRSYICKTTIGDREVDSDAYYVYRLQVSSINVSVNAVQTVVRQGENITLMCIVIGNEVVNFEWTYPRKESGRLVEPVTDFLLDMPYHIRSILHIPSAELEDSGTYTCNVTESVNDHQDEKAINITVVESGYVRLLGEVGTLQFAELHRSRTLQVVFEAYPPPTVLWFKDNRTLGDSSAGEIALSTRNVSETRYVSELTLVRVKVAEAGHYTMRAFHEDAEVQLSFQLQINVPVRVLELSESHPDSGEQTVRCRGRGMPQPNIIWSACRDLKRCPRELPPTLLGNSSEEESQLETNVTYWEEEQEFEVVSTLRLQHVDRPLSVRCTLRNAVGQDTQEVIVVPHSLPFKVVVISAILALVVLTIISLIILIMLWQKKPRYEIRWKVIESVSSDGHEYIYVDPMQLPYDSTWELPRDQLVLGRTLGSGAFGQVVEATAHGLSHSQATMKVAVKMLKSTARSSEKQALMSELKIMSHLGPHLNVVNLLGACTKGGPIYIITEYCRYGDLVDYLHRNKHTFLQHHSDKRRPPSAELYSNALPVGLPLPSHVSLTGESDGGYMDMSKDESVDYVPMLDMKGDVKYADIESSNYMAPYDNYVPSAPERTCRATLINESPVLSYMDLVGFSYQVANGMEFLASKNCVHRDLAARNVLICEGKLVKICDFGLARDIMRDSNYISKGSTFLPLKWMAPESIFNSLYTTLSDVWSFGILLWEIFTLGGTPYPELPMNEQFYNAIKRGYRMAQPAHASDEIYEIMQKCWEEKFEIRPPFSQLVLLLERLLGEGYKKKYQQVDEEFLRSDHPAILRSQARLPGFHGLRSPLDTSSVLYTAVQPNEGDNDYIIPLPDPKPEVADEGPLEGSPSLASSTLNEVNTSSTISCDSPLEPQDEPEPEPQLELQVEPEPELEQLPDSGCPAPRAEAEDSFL

[1] = target: T6, human CK2 protein kinase (holoenzyme) (Homo sapiens, UniProt P68400); assay: Inhibition of recombinant human CK2 protein kinase (holoenzyme), radiometric filter assay with peptide […]; assay type: biochemical
T6 construct: made in house; host or cells: E. coli BL21(DE3), pT7-7 or bicistronic pET11d-CK2α, β
T6 sequence (P68400 whole entry): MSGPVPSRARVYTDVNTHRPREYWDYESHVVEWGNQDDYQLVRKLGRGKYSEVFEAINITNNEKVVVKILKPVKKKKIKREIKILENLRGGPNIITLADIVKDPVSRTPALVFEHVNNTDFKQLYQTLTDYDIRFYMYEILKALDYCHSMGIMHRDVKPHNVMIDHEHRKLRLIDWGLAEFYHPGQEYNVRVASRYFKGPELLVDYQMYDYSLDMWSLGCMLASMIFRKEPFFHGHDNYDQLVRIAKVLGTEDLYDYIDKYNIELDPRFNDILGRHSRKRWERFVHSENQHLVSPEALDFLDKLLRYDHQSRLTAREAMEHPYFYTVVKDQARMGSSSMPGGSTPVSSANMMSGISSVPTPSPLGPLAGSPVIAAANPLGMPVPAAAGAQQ
T6 sequence (P67870 whole entry partner): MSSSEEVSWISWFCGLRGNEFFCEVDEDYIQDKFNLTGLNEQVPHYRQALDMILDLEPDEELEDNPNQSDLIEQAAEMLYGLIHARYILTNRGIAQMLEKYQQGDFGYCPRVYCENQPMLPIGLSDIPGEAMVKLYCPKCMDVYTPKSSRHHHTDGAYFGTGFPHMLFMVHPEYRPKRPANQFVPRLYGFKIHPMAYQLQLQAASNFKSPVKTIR

MCF-7 = assay: Proliferation of tumor cell lines (Bracht et al.); assay type: cell-based; settings: Homo sapiens, MCF7, read-out: IC50 (μM) Mean, inhibition of cell proliferation
DAN-G = assay: Proliferation of tumor cell lines (Bracht et al.); assay type: cell-based; settings: read-out: IC50 (μM) Mean, inhibition of cell proliferation
LCLC = assay: Proliferation of tumor cell lines (Bracht et al.); assay type: cell-based; settings: read-out: IC50 (μM) Mean, inhibition of cell proliferation
A427 = assay: Proliferation of tumor cell lines (Bracht et al.); assay type: cell-based; settings: Homo sapiens, A-427, read-out: IC50 (μM) Mean, inhibition of cell proliferation
RT-4 = assay: Proliferation of tumor cell lines (Bracht et al.); assay type: cell-based; settings: Homo sapiens, read-out: IC50 (μM) Mean, inhibition of cell proliferation
[2] = target: T7, CK2-alpha1 (catalytic subunit of CK2) (Homo sapiens, UniProt P68400); assay: Radiometric protein kinase assay (33PanQinase Activity Assay); assay type: biochemical; settings: 1 μM ATP, substrate casein
T7 construct: made in house; host or cells: Sf9 insect cells, baculovirus
T7 sequence (P68400 whole entry): as the sequence (P68400 whole entry) above

[3] = 1 μM ATP, read-out: IC50 values [μM] AKT1
[4] = 1 μM ATP, autophosphorylation, read-out: IC50 values [μM] COT
[5] = 1 μM ATP, read-out: IC50 values [μM] EPHB4

| inhibition at 10 µM ([1]; 10 μM compound, DMSO control = 100% CK2 activity, at least three independent experiments) [%] | IC50 ([1]; concentration range 30 μM to 0.01 μM, 100 μM ATP in assay buffer) [µM] | IC50 (KYSE-70; KYSE-70, read-out: IC50 (μM) Mean, inhibition of cell proliferation) [µM] | IC50 (MCF-7) [µM] | IC50 (DAN-G) [µM] | IC50 (LCLC) [µM] | IC50 (A427) [µM] | IC50 (RT-4) [µM] | IC50 [2] [µM] | SMILES | activity at 20 µM (KYSE-70) [%] | IC50 (EGF-R) [µM] | IC50 (AKT1; [3]) [µM] | IC50 (COT; [4]) [µM] | IC50 (EPHB4; [5]) [µM] | IC50 (PDGFR-beta) [µM] | IC50 (AKT1) [µM] | IC50 (COT) [µM] | IC50 (EPHB4) [µM] |
| --- | --- | --- | --- | --- | --- | --- | --- | --- | --- | --- | --- | --- | --- | --- | --- | --- | --- | --- |
|  |  |  |  |  |  |  |  |  | CC(C)n1c2c(=O)ccc(=O)c2c2c(=O)c3ccccc3c21 [Compound 6b, 5-Isopropyl-5H-indeno[1,2-b]indole-6,9,10-trione] | 1.26 | > 10 | 9.3 | 9.3 | > 10 | > 10 |  |  |  |
|  |  |  |  |  |  |  |  |  | CC(C)n1c2c(c3c1-c1ccccc1C3=O)C(=O)CCC2 [Compound 4b, 5-Isopropyl-5,6,7,8-tetrahydroindeno[1,2-b]indole-9,10-dione] | 74.9 |  |  |  |  |  | > 10 | > 10 | > 10 |
| 60 | 1.49 | 2.83 | 3.27 | > 20 | 4.14 | 3.74 | > 20 | > 10 | O=c1ccc(=O)c2c1c1c(=O)c3ccccc3c1n2Cc1ccccc1 [Compound 6c, 5-Benzyl 5,6,9,10-tetrahydroindeno[1,2-b]indole-6,9,10-trione] | 12.1 | 2.5 | > 10 | 4.4 | 9.3 | > 10 |  |  |  |
